Laboratory results: patent publication US7727980B2, “Tricyclic androgen receptor modulator compounds and methods” (priority 2001, dated 2010)
Where two headings read alike, the source gives them in different places.

Key:
human AR [1] = target: T1, human AR (Homo sapiens, UniProt P10275); assay: Co-transfection assay, AR agonist activity, CV-1 cells; type: cell-based; set-up: expressed in transfected cells; host or cells: CV-1 cells (African green monkey kidney fibroblasts), transient transfection with pRShAR; conditions: for AR Agonist CV-1 Cells Efficacy (%): percent maximal response relative to reference agonist DHT
T1 sequence (P10275 1-920): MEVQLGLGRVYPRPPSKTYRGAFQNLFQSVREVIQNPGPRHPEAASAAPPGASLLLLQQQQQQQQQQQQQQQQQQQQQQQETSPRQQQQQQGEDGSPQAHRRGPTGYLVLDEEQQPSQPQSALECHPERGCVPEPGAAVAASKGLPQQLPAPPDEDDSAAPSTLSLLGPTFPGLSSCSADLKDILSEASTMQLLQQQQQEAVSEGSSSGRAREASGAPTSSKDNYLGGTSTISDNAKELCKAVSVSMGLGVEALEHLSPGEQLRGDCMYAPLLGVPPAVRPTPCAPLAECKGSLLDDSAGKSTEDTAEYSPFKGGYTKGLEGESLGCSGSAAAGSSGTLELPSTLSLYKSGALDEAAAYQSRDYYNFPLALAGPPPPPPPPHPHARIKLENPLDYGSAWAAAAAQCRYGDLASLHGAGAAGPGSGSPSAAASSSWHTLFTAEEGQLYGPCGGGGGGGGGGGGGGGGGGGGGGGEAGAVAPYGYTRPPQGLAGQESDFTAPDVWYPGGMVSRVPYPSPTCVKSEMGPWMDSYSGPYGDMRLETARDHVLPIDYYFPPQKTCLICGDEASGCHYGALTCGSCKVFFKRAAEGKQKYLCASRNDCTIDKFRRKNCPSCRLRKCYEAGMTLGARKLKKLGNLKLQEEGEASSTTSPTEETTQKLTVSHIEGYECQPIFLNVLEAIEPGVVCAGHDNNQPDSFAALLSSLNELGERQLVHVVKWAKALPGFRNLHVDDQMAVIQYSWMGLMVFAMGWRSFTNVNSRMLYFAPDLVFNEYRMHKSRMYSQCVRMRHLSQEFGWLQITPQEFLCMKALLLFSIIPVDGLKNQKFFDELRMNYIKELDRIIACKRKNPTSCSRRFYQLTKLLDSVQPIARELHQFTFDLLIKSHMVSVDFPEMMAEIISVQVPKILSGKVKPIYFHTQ
Text: (§1) The co-transfection assay provides a method for identifying functional agonists and partial agonists which mimic, or antagonists which inhibit, the effect of native hormones and quantifying their activity for responsive IR proteins. In this regard, the co-transfection assay mimics an in vivo system in the laboratory. Importantly, activity in the co-transfection assay correlates very well with known in vivo activity, such that the co-transfection assay functions as a qualitative and quantitative predictor of a tested compounds in vivo pharmacology. See, e.g., T. Berger et al. 41 J. Steroid Biochem. Molec.
(§2) In the co-transfection assay, a cloned cDNA for an IR (e.g., human PR, AR or GR) under the control of a constitutive promoter (e.g., the SV 40 promoter) is introduced by transfection (a procedure to induce cells to take up foreign genes) into a background cell substantially devoid of endogenous IRs. This introduced gene directs the recipient cells to make the IR protein of interest. A second gene is also introduced (co-transfected) into the same cells in conjunction with the IR gene. This second gene, comprising the cDNA for a reporter protein, such as firefly luciferase (LUC), controlled by an appropriate hormone responsive promoter containing a hormone response element (HRE). This reporter plasmid functions as a reporter for the transcription-modulating activity of the target IR. Thus, the reporter acts as a surrogate for the products (mRNA then protein) normally expressed by a gene under control of the target receptor and its native hormone.
(§3) The co-transfection assay can detect small molecule agonists or antagonists of target IRs. Exposing the transfected cells to an agonist ligand compound increases reporter activity in the transfected cells. This activity can be conveniently measured, e.g., by increasing luciferase production, which reflects compound-dependent, IR-mediated increases in reporter transcription. […] To detect antagonists, the co-transfection assay is carried out in the presence of a constant concentration of an agonist to the target IR (e.g., progesterone for PR) known to induce a defined reporter signal. Increasing concentrations of a suspected antagonist will decrease the reporter signal (e.g., luciferase production). The co-transfection assay is therefore useful to detect both agonists and antagonists of specific IRs. Furthermore, it determines not only whether a compound interacts with a particular IR, but whether this interaction mimics (agonizes) or blocks (antagonizes) the effects of the native regulatory molecules on target gene expression, as well as the specificity and strength of this interaction.
(§4) CV-1 cells (African green monkey kidney fibroblasts) were cultured in the presence of Dulbecco's Modified Eagle Medium (DMEM) supplemented with 10% charcoal resin-stripped fetal bovine serum then transferred to 96-well microtiter plates one day prior to transfection.
(§5) The reporter plasmid, MTV-LUC, contains the cDNA for firefly luciferase (LUC) under control of the mouse mammary tumor virus (MTV) long terminal repeat, a conditional promoter containing an androgen response element. See e.g., Berger et al. supra. In addition, pRS-β-Gal, coding for constitutive expression of E. coli β-galactosidase (β-Gal), was included as an internal control for evaluation of transfection efficiency and compound toxicity.
(§6) Six hours after transfection, media was removed and the cells were washed with phosphate-buffered saline (PBS). […] Three to four replicates were used for each sample. Transfections and subsequent procedures were performed on a Biomek 1000 automated laboratory work station.
(§7) After 40 hours, the cells were washed with PBS, lysed with a Triton X-100-based buffer and assayed for LUC and β-Gal activities using a luminometer or spectrophotometer, respectively. For each replicate, the normalized response (NR) was calculated as: LUC response/β-Gal rate • where β-Gal rate=β-Gal·1×10^−5/β-Gal incubation time.

human AR [2] = target: T1, human AR; assay: Co-transfection assay, AR antagonist activity in presence of DHT, CV-1 cells; type: cell-based; set-up: expressed in transfected cells; host or cells: CV-1 cells (African green monkey kidney fibroblasts), transient transfection with pRShAR; conditions: for AR Antagonist CV-1 Cells Efficacy (%): percent maximal inhibition, DHT at its EC50 concentration
Text: as §1, §2, §3, §4, §5, §6, §7

human AR [3] = target: T1, human AR; assay: AR whole cell competitive binding assay (3H-DHT), transfected COS-1 cells; set-up: expressed in transfected cells; transient transfection with pRShAR; conditions: COS-1 cells, 1 nM 3H-DHT, Cheng-Prusoff from IC50
Description: AR Binding: For the whole cell binding assay, COS-1 cells in 96-well microtiter plates containing DMEM-10% FBS were transfected as described above with the following plasmid DNA: pRShAR (2 ng/well), pRS-β-Gal (50 ng/well) and pGEM (48 ng/well). Six hours after transfection, media was removed, the cells were washed with PBS and fresh media was added. The next day, the media was changed to DMEM-serum free to remove any endogenous ligand that might be complexed with the receptor in the cells.
Three replicates were used for each sample. […] The remaining media was removed, the cells were washed three times with PBS to remove unbound ligand and cells were lysed with a Triton X-100-based buffer.
For the saturation analyses, the difference between the total binding and the nonspecific binding, normalized by the β-Gal rate, was defined as specific binding. […] The Ki values were determined by application of the Cheng-Prusoff equation to the IC50 values, where: […]
After correcting for non-specific binding, IC50 values were determined. […] The IC50 value was determined graphically from a log-logit plot of the data. The Ki values were determined by application of the Cheng-Prusoff equation to the IC50 values, the labeled ligand concentration and the Kd of the labeled ligand.

[4] = AR Agonist CV-1 Cells Potency (nM), agonist potency or EC50
[5] = AR Antagonist CV-1 Cells Potency (nM), CV-1 cells, antagonist potency or IC50, DHT at its EC50 concentration
[6] = agonist potency or EC50, read-out: AR Agonist CV-1 Cells Potency
[7] = CV-1 cells, antagonist potency or IC50, DHT at its EC50 concentration, read-out: AR Antagonist CV-1 Cells Potency

Compound | EC50 (human AR [1]; [4]) [nM] | AR Agonist CV-1 Cells Efficacy (%) (human AR [1]) | IC50 (human AR [2]; [5]) [nM] | AR Antagonist CV-1 Cells Efficacy (%) (human AR [2]; CV-1 cells) | Ki (human AR [3]; AR Binding Ki (nM)) [nM] | EC50 (human AR [1]; [6]) [nM] | IC50 (human AR [2]; [7]) [nM] | Ki (human AR [3]; read-out: AR Binding Ki) [nM] | IC50 (human AR [2]) [nM]
CCc1c(C)c2cc3[nH]c(=O)cc(C(F)(F)F)c3cc2n1CC(F)(F)F [Compound 163, 7-Ethyl-8-methyl-6-(2,2,2-trifluoroethyl)-4-trifluoromethyl-6H-pyrrolo[2,3-g]quinolin-2(1H)-one] | > 10000 | na (na = not active (i.e. efficacy of <20 and potency of >10,000)) | 8.2 | 37% |  |  |  |  | 
CCC1CCOc2cc3c(cc21)c(C(F)(F)F)cc(=O)n3C (racemic) [Compound 220, (±)-6,7-Dihydro-6-ethyl-4-trifluoromethyl-1-methyl-8H-pyrano[3,2-g]quinolin-2(1H)-one] | > 10000 | na (na = not active (i.e. efficacy of <20 and potency of >10,000)) | 23 | 67% |  |  |  |  | 
CC1(C)CCc2c(ccc3[nH]c(=O)cc(C(F)(F)F)c23)N1CC(F)(F)F [Compound 110, 8-(2,2,2-Trifluoroethyl)-5,6,7,8-tetrahydro-7,7-dimethyl-4-trifluoromethyl-pyridino[3,2-f]quinolin-2(1H)-one] | 21 | 106% | > 10000 | na (na = not active (i.e. efficacy of <20 and potency of >10,000)) | 21 |  |  |  | 
CC1(C)CCc2c(ccc3[nH]c(=O)cc(C(F)(F)F)c23)N1 [Compound 104, 5,6,7,8-Tetrahydro-7,7-dimethyl-4-trifluoromethylpyridino[3,2-f]quinolin-2(1H)-one] | 183 | 78% | 1.8 | 50% | 15 |  |  |  | 
O=c1cc(C(F)(F)F)c2c3c(ccc2[nH]1)N(Cc1ccoc1)C1CCCC31 (racemic) [Compound 126, (±)-4c,5,6,7,7a(cis),8-Hexahydro-8-(3-furanylmethyl)-4-trifluoromethyl-cyclopentano[g]pyrrolo[3,2-f]quinolin-2(1H)-one] |  | 53% | > 10000 | na (na = not active (i.e. efficacy of <20 and potency of >10,000)) | 2.3 |  |  |  | 
6-Methyl-7-(2,2,2-trifluoroethyl)-4-trifluoromethyl-7H-pyrrolo[3,2-f]quinolin-2(1H)-one [Compound 152] |  | 74% |  | na (na = not active (i.e. efficacy of <20 and potency of >10,000)) |  | 4.9 | > 10000 | 67 | 
CC(C)C1c2c(ccc3[nH]c(=O)cc(C(F)(F)F)c23)N(CC(F)(F)F)C1C (racemic) [Compound 144, (±)-5,6-cis-Dihydro-5-isopropyl-6-methyl-7-(2,2,2-trifluoroethyl)-4-trifluoromethyl-7H-pyrrolo[3,2-f]quinolin-2(1H)-one] | > 10000 | na (na = not active (i.e. efficacy of <20 and potency of >10,000)) | 23 | 53% |  |  |  |  | 
CC1CC(C)(C)N(CC(F)(F)F)c2ccc3[nH]c(=O)ccc3c21 (centres unmarked) [Compound 182, 8-(2,2,2-Trifluoroethyl)-5,6,7,8-tetrahydro-5,7,7-trimethylpyrido[3,2-f]quinolin-2(1H)-one] |  | na (na = not active (i.e. efficacy of <20 and potency of >10,000)) |  | 81% |  |  |  |  | 13
6,7-Dihydro-8,8-dimethyl-4-(trifluoromethyl)-8H-pyrano[3,2-g]quinolin-2(1H)-one [Compound 202] |  | na (na = not active (i.e. efficacy of <20 and potency of >10,000)) |  | 92% |  | > 10000 | 146 |  | 
6,7-Dihydro-8,8,10-trimethyl-4-(trifluoromethyl)-8H-pyrano[3,2-g]quinolin-2(1H)-one [Compound 206] |  | na (na = not active (i.e. efficacy of <20 and potency of >10,000)) |  | 90% |  | > 10000 | 175 |  | 
(−)-6,7-Dihydro-6-ethyl-4-trifluoromethyl-8H-pyrano[3,2-g]quinolin-2(1H)-one [Compound 217] |  | na (na = not active (i.e. efficacy of <20 and potency of >10,000)) |  | 85% |  | > 10000 | 64 |  | 
6-Ethyl-5-methyl-7-(2,2,2-trifluoroethyl)-4-trifluoromethyl-7H-pyrrolo[3,2-f]quinolin-2(1H)-one [Compound 153] |  | 76% |  | na (na = not active (i.e. efficacy of <20 and potency of >10,000)) |  | 7.6 | > 10000 |  | 
